One series can be described thus: in vivo. The settings on record: female, Balb/c, mouse, plasma, po.
A further series concerns the target Btk (Homo sapiens (Human), UniProt Q06187). Kind of series: Btk acellular kinase assay (TR-FRET). The settings on record: Btk IC50 relative to compound 4. For orientation: Time-resolved FRET reads energy transfer from a long-lived donor to a nearby acceptor.
The next series concerns DHL-6 cells. Kind of series: DHL-6 cell growth (Alamar Blue assay). The class given is cell-based. As to conditions: 3E4 DHL-6 cells/well in complete media, 0.1% DMSO. On the technique in general: Resazurin is reduced to fluorescent resorufin, in cell work by metabolically active cells.

Structures are written as SMILES.

Broadly, the Tmax is the time at which the peak concentration occurs.

Btk, sequence (Q06187 whole entry): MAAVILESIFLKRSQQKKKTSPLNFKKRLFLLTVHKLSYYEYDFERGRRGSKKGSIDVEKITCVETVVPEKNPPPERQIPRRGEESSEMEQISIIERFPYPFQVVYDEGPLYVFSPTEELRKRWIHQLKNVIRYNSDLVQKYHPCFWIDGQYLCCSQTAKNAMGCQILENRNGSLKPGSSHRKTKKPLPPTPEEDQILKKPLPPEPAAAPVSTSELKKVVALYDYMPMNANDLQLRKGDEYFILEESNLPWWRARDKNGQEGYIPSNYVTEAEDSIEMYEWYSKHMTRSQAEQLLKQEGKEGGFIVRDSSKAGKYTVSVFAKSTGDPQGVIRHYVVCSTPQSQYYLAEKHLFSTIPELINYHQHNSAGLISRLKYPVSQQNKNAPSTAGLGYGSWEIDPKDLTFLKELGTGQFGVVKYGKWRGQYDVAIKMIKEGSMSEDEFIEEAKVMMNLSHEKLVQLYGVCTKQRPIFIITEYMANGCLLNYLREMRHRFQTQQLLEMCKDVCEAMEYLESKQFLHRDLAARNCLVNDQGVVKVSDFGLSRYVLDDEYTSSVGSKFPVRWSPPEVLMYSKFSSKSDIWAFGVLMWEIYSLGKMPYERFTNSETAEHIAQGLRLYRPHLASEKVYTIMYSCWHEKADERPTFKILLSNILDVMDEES

For the molecule `C=CC(=O)N1CCCC(n2nc(-c3ccc(Oc4ccccc4)cc3)c3c(N)ncnc32)C1` (stereo not drawn) [Compound 4, 1-(3-(4-amino-3-(4-phenoxyphenyl)-1H-pyrazolo[3,4-d]pyrimidin-1-yl)piperidin-1-yl)prop-2-en-1-one], in the series “in vivo”, the time to peak (Tmax) is 2 h. As for `C/C=C/C(=O)N1CCCC(n2nc(-c3ccc(Oc4ccccc4)cc3)c3c(N)ncnc32)C1` (stereo not drawn) [Compound 5, (E)-1-(3-(4-amino-3-(4-phenoxyphenyl)-1H-pyrazolo[3,4-d]pyrimidin-1-yl)piperidin-1-yl)but-2-en-1-one], the “fold less potent than 4” value on Btk was 28 fold. Regarding `CN(C)C/C=C/C(=O)N1CCCC(n2nc(-c3ccc(Oc4ccccc4)cc3)c3c(N)ncnc32)C1` (stereo not drawn) [Compound 15, (E)-1-(3-(4-amino-3-(4-phenoxyphenyl)-1H-pyrazolo[3,4-d]pyrimidin-1-yl)piperidin-1-yl)-4-(dimethylamino)but-2-en-1-one], in the series on DHL-6 cells, the “growth of DHL-6 cells” value is given as “inhibit growth”.
